Measurements reported in US12139487B2, “Compounds and uses thereof” (Foghorn Therapeutics Inc., priority 2022, dated 2024).

Test system: BRM-dependent transcription (BRG1 mutant lung cancer cell line A549)
Assay: BRM-dependent transcription, MMTV luciferase reporter in BRG1 mutant A549 cells
Type: cell-based
Settings: Table 11; for IC50: Homo sapiens, A549, 6 h, A549-MMTV luciferase reporter, dexamethasone induced, 6 hours; for Ratio (MDA-MMTV IC50 (μM) divided by A549-MMTV IC50 (μM)): MMTV luciferase reporter cell lines, selectivity BRG1/BRM
Procedure: The potential inhibitory effects of compounds on BRG1 and BRM dependent transcription was study by testing the activity of against the BRG1 mutant lung cancer cell line A549 and a MDA cell line with BRM removed by CRISPR. Both cell lines were genetically engineered with a BRG1 or BRM-dependent mouse mammary tumor virus luciferase reporter. Luciferase transcription was induced by dexamethasone in the presence of compound at different concentrations and luminescence was measured using a plate reader 6 hours after stimulation.

Row | IC50 | Ratio (MDA-MMTV IC50 (μM) divided by A549-MMTV IC50 (μM)) | Structure (SMILES)
1 | 25.1 nM | 47.75 | O=C(NCc1cc2nc(-c3ccc(OC(F)F)c(C4CC4)n3)ccc2cn1)c1cc(Br)c2c(c1)S(=O)(=O)[C@@H](F)CCO2 [Compound 400]
2 | 21.7 nM | 26.98 | CC(C)c1ccc(-c2ccc3cnc(CNC(=O)c4cc(Br)c5c(c4)S(=O)(=O)[C@@H](F)CCO5)cc3n2)c(OC(F)F)n1 [Compound 402]
3 | 14 nM | 27.49 | COC1(c2cccc(-c3ccc4cnc(CNC(=O)c5cc(F)c6c(c5)S(=O)(=O)[C@@H](F)CCO6)cc4n3)n2)CC1 [Compound 403]
4 | 15.6 nM | 36.02 | O=C(NCc1cc2nc(-c3cccc(OC(F)F)n3)ccc2cn1)c1cc(C(F)F)c2c(c1)S(=O)(=O)[C@@H](F)COC2 [Compound 404]
5 | 2.8 nM | 22.10 | C[C@@H]1CN(c2cccc(-c3cnc4cnc(CNC(=O)c5cc(F)c6c(c5)S(=O)(=O)[C@@H](F)CCO6)cc4n3)n2)C[C@H](C)O1 [Compound 405, (4R)—N-[[2-[6-[(2R,6S)-2,6-dimethylmorpholin-4-yl]-2-pyridyl]pyrido[3,4-b]pyrazin-7-yl]methyl]-4,9-difluoro-5,5-dioxo-3,4-dihydro-2H-1,5λ6-benzoxathiepine-7-carboxamide]
6 | 5.9 nM | 27.42 | O=C(NCc1cc2nc(-c3ccc([C@@H](F)CF)c(C4CC4)n3)ccc2cn1)c1cc(F)c2c(c1)S(=O)(=O)[C@@H](F)CCO2 [Compound 406]
7 | 11.7 nM | 29.00 | C=Cc1cc(C(=O)NCc2cc3nc(-c4cccc(N5C[C@@H](C)O[C@@H](C)C5)n4)ccc3cn2)cc2c1OCC[C@H](F)S2(=O)=O [Compound 407]
8 | 16.5 nM | 32.34 | O=C(NCc1cc2nc(-c3ccc(OC(F)F)c(C4CC4)n3)ccc2cn1)c1cc(Br)c2c(c1)S(=O)(=O)[C@@H](F)COC2 [Compound 408]
9 | 14.1 nM | 25.36 | COc1nc(OC(F)F)ccc1-c1ccc2cnc(CNC(=O)c3cc(Cl)c4c(c3)S(=O)(=O)[C@@H](F)COC4)cc2n1 [Compound 409]
10 | 14.3 nM | 27.39 | COc1nc(C(F)F)ccc1-c1ccc2cnc(CNC(=O)c3cc(Br)c4c(c3)S(=O)(=O)[C@@H](F)COC4)cc2n1 [Compound 410]
11 | 8.6 nM | 24.27 | O=C(NCc1cc2nc(-c3ccc([C@H](F)CF)c(C4CC4)n3)ccc2cn1)c1cc(F)c2c(c1)S(=O)(=O)[C@@H](F)CCO2 [Compound 411]
12 | 11.9 nM | 21.10 | COCCOc1cnc2c(c1)CCCN2c1ccc2cnc(CNC(=O)c3cc(Cl)c4c(c3)S(=O)(=O)[C@@H](F)COC4)cc2n1 [Compound 412]
13 | 6.2 nM | 27.54 | Cc1cc(C(=O)NCc2cc3nc(-c4ccc(OC(F)F)c(C5CC5)n4)ccc3cn2)cc2c1COC[C@H](F)S2(=O)=O [Compound 413]
14 | 15.1 nM | 22.34 | COCCOc1cnc2c(c1)OCCN2c1ccc2cnc(CNC(=O)c3cc(Cl)c4c(c3)S(=O)(=O)[C@@H](F)CCO4)cc2n1 [Compound 414]
15 | 7.6 nM | 35.99 | O=C(NCc1cc2nc(-c3ccc(OC(F)F)c(C4CC4)n3)ccc2cn1)c1cc(C(F)F)c2c(c1)S(=O)(=O)[C@@H](F)COC2 [Compound 415]
16 | 19.9 nM | 50.12 | CCOc1ccc(-c2ccc3cnc(CNC(=O)c4cc(C(F)F)c5c(c4)S(=O)(=O)[C@@H](F)COC5)cc3n2)nc1C1CC1(F)F (stereo partly drawn) [Compound 416]
17 | 27.5 nM | 39.11 | O=C(NCc1cc2nc(-c3cccc(C4CC4)n3)ccc2cn1)c1cc(Br)c2c(c1)S(=O)(=O)[C@@H](F)COC2 [Compound 417]
18 | 23.9 nM | 52.60 | [2H]C1([2H])Oc2c(Cl)cc(C(=O)NCc3cc4nc(-c5cccc(OC(F)F)n5)ccc4cn3)cc2S(=O)(=O)[C@@H](F)C1([2H])[2H] [Compound 418]
19 | 17.4 nM | 28.69 | [2H]C1([2H])Oc2c(Cl)cc(C(=O)NCc3cc4nc(-c5ccc(OC(F)F)c(C6CC6)n5)ccc4cn3)cc2S(=O)(=O)[C@@H](F)C1([2H])[2H] [Compound 419]
20 | 25.7 nM | 24.69 | O=C(NCc1cc2nc(-c3ccnc(C4CC4(F)F)n3)ccc2cn1)c1cc(Cl)c2c(c1)S(=O)(=O)[C@@H](F)COC2 (stereo partly drawn) [Compound 420]
21 | 8 nM | 23.62 | [2H]C([2H])([2H])C([2H])([2H])Oc1nc([C@H](C)F)ccc1-c1ccc2cnc(CNC(=O)c3cc(F)c4c(c3)S(=O)(=O)[C@@H](F)CCO4)cc2n1 [Compound 421]

Row | IC50 | Ratio (MDA-MMTV IC50 (μM) divided by A549-MMTV IC50 (μM)) | Structure (SMILES)
22 | 24.4 nM | 23.20 | COCc1ccc(-c2ccc3cnc(CNC(=O)c4cc(Cl)c5c(c4)S(=O)(=O)[C@@H](F)COC5)cc3n2)nc1C1CC1 [Compound 422]
23 | 10.4 nM | 32.08 | CCOc1nc([C@@H](F)CF)ccc1-c1ccc2cnc(CNC(=O)c3cc(Cl)c4c(c3)S(=O)(=O)[C@@H](F)CCO4)cc2n1 [Compound 423]
24 | 23.7 nM | 31.82 | COCCOc1cnc2c(c1)OCCN2c1ccc2cnc(CNC(=O)c3cc(Br)c4c(c3)S(=O)(=O)[C@@H](F)CCO4)cc2n1 [Compound 424]
25 | 2.3 nM | 24.38 | O=C(NCc1cc2nc(N3CCC(F)(F)c4cc(C5CC5)cnc43)ccc2cn1)c1cc(F)c2c(c1)S(=O)(=O)[C@@H](F)CCO2 [Compound 425]
26 | 10.2 nM | 25.72 | COCCOc1cnc2c(c1)OCCN2c1ccc2cnc(CNC(=O)c3cc(Br)c4c(c3)S(=O)(=O)[C@@H](F)COC4)cc2n1 [Compound 426]
27 | 20.6 nM | 32.84 | COCCOc1cnc2c(c1)CCCN2c1ccc2cnc(CNC(=O)c3cc(Br)c4c(c3)S(=O)(=O)[C@@H](F)COC4)cc2n1 [Compound 427]
28 | 20.3 nM | 26.26 | O=C(NCc1cc2nc(-c3ccc(OCCO)c(C4CC4)n3)ccc2cn1)c1cc(Cl)c2c(c1)S(=O)(=O)[C@@H](F)COC2 [Compound 428]
29 | 16.9 nM | 32.94 | O=C(NCc1cc2nc(-c3cccc(C4CC4)n3)ccc2cn1)c1cc(C(F)F)c2c(c1)S(=O)(=O)[C@@H](F)COC2 [Compound 429]
30 | 8.1 nM | 40.24 | CCOc1nc(C(F)F)ccc1-c1ccc2cnc(CNC(=O)c3cc(C(F)F)c4c(c3)S(=O)(=O)[C@@H](F)COC4)cc2n1 [Compound 430]
31 | 9.5 nM | 31.77 | CCOc1nc(C(F)F)ccc1-c1ccc2cnc(CNC(=O)c3cc(Cl)c4c(c3)S(=O)(=O)[C@@H](F)COC4)cc2n1 [Compound 431]
32 | 13 nM | 25.93 | COCCc1ccc2c(n1)N(c1ccc3cnc(CNC(=O)c4cc(F)c5c(c4)S(=O)(=O)[C@@H](F)CCO5)cc3n1)CCO2 [Compound 432]
33 | 3 nM | 27.74 | [2H]C([2H])([2H])c1cc(C(=O)NCc2cc3nc(-c4cccc(N5C[C@@H](C)O[C@@H](C)C5)n4)ccc3cn2)cc2c1OCC[C@H](F)S2(=O)=O [Compound 433]
34 | 8.7 nM | 41.19 | COc1ccc(-c2ccc3cnc(CNC(=O)c4cc(C(F)F)c5c(c4)S(=O)(=O)[C@@H](F)COC5)cc3n2)nc1C1CC1(F)F (stereo partly drawn) [Compound 434]
35 | 23 nM | 25.82 | O=C(NCc1cc2nc(N3CCOc4ccc(C(F)F)nc43)ccc2cn1)c1cc(Br)c2c(c1)S(=O)(=O)[C@@H](F)CCO2 [Compound 435]
36 | 13.1 nM | 43.58 | CCOc1nc(C(F)F)ccc1-c1ccc2cnc(CNC(=O)c3cc(Br)c4c(c3)S(=O)(=O)[C@@H](F)COC4)cc2n1 [Compound 436]
37 | 5.8 nM | 35.93 | COCCOc1cnc2c(c1)OCCN2c1ccc2cnc(CNC(=O)c3cc(C(F)F)c4c(c3)S(=O)(=O)[C@@H](F)COC4)cc2n1 [Compound 437]
38 | 13.3 nM | 27.20 | COCCOc1cnc2c(c1)CCCN2c1ccc2cnc(CNC(=O)c3cc(C(F)F)c4c(c3)S(=O)(=O)[C@@H](F)COC4)cc2n1 [Compound 439]
39 | 16.1 nM | 53.01 | [2H]C([2H])([2H])C([2H])([2H])Oc1ccc(-c2ccc3cnc(CNC(=O)c4cc(C(F)F)c5c(c4)S(=O)(=O)[C@@H](F)COC5)cc3n2)nc1C1CC1(F)F (stereo partly drawn) [Compound 440]
40 | 8.9 nM | 21.14 | O=C(NCc1cc2nc(-c3ccc(C(F)F)c(N4CC(F)C4)n3)ccc2cn1)c1cc(F)c2c(c1)S(=O)(=O)[C@@H](F)CCO2 [Compound 441]
41 | 8.5 nM | 25.83 | O=C(NCc1cc2nc(-c3ccc(C(F)F)c(C4CC4)n3)ccc2cn1)c1cc(Br)c2c(c1)S(=O)(=O)[C@@H](F)COC2 [Compound 442]
42 | 15.2 nM | 27.83 | C=C(F)c1cc(C(=O)NCc2cc3nc(-c4cccc(N5C[C@@H](C)O[C@@H](C)C5)n4)ccc3cn2)cc2c1OCC[C@H](F)S2(=O)=O [Compound 443]
